Read-outs that look alike come from different tables or passages of the source.
Experiments:
[1] = biological target: T1, EGFR L858R/T790M/C797S (BaF3-LTC cells) (Homo sapiens, UniProt P00533, C797S/L858R/T790M); assay: EGFR degradation HTRF assay, BaF3-LTC cells; assay type: cell-based
T1 construct: expressed in transfected cells; host or cells: BaF3
Procedure, shortened: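 EGFR remaining after a 16 h, 37 °C exposure (8 doses, 5-fold steps from 10 uM final, 0.2% DMSO) was quantified by HTRF antibodies in cell lysate. Percent inhibition relative to DMSO control was fitted by four-parameter logistic to give DC50; Dmax denotes maximal degradation.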

[2] = test system: EGFR Del19/T790M/C797S (H1975-clone #28); assay: EGFR degradation HTRF assay, H1975-clone #28 DTC cells; assay type: cell-based
Procedure, shortened: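 Lentiviral Del19/T790M/C797S (clone #28) or Del19/C797S (clone #23) EGFR expressed in H1975 with endogenous EGFR knocked out. Cells treated 16 h, 37 °C, 8 doses, 5-fold from 10 uM top, 0.2% DMSO; EGFR read by HTRF after lysis. Degradation % vs DMSO control; DC50, Dmax from four-parameter fit.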

[3] = BaF3-LTC cells; EGFR degradation, IC50 (DC50) from curve fit; read-out: DC50(nM) BaF3-LTC
[4] = BaF3-LTC cells; maximum percentage of inhibition (degradation); read-out: Dmax (%) BaF3-LTC
[5] = H1975 # 28 DTC cells; EGFR degradation, IC50 (DC50) from curve fit; read-out: DC50(nM) H1975 # 28 DTC
[6] = H1975 # 28 DTC cells; maximum percentage of inhibition (degradation)
[7] = read-out: DC50(nM) H1975 # 28 DTC; H1975 # 28 DTC cells; EGFR degradation, IC50 (DC50) from curve fit
[8] = read-out: DC50(nM) BaF3-LTC; BaF3-LTC cells; EGFR degradation, IC50 (DC50) from curve fit
[9] = read-out: Dmax (%) BaF3-LTC, BaF3-LTC cells; maximum percentage of inhibition (degradation)

T1 sequence (P00533 25-1210 T790M/C797S/L858R): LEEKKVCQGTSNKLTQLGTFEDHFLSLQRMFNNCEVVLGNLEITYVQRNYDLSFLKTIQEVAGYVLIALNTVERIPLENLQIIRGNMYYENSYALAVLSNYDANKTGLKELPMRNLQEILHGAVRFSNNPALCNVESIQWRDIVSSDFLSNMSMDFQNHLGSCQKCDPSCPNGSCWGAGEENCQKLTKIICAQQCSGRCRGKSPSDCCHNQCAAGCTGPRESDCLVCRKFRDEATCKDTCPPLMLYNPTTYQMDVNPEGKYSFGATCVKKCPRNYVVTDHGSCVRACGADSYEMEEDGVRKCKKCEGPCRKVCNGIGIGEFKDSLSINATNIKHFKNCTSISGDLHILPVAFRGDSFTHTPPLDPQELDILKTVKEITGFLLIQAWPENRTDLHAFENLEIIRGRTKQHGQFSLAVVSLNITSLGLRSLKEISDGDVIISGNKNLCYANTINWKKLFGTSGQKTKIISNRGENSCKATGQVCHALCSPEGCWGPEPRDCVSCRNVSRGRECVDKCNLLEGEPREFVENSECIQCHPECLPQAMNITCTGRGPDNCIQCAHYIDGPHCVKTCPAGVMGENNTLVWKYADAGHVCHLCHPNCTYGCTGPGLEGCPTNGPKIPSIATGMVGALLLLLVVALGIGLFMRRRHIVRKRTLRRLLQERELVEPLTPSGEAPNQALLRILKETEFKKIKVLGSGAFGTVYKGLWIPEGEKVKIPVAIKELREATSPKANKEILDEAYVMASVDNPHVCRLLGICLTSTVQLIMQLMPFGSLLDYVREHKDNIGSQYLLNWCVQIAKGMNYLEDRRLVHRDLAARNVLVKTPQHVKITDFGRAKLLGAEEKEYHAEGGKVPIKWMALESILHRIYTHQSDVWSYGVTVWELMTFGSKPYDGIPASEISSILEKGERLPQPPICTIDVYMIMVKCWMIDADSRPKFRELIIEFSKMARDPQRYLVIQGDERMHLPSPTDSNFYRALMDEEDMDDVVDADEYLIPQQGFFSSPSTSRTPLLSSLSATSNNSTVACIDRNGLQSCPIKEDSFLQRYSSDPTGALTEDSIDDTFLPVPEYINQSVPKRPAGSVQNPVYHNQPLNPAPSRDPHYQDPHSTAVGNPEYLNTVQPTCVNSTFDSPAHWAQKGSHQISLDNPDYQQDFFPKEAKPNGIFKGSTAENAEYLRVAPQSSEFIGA

**Q.** Which DC50 [1, 3] does the source give for `CCOc1cc(N2CCC(N3CCN(C[C@H]4CCN(c5cccc6c5oc(=O)n6C5CCC(=O)NC5=O)C4)CC3)CC2)c(CC)cc1Nc1ncc(Br)c(Nc2ccc3nc(CC)ccc3c2P(C)(C)=O)n1` (stereo partly drawn) [Example 561, 3-(7-((R)-3-((4-(1-(4-((5-bromo-4-((5-(dimethylphosphoryl)-2-ethylquinolin-6-yl)amino)pyrimidin-2-yl)amino)-5-ethoxy-2-ethylphenyl)piperidin-4-yl)piperazin-1-yl)methyl)pyrrolidin-1-yl)-2-oxobenzo[d]oxazol-3(2H)-yl)piperidine-2,6-dione] here?
**A.** The DC50 was 10.3 nM.

**Q.** And the Dmax [1, 4]?
**A.** The Dmax was 89.5%.

**Q.** And the DC50 [2, 5]?
**A.** Its DC50 is 1.68 nM.

**Q.** What about the “Dmax (%) H1975 # 28 DTC” value [2, 6] of the same molecule?
**A.** The value was 77.5%.

**Q.** How did the DC50 [1, 3] turn out when `CCOc1cc(N2CCC(N3CCN(CC4CN(c5cccc6c5oc(=O)n6C5CCC(=O)NC5=O)C4)CC3)CC2)c(CC)cc1Nc1ncc(Br)c(Nc2cc(F)c3nc(CC)ccc3c2P(C)(C)=O)n1` (stereo not shown) [Example 562, 3-(7-(3-((4-(1-(4-((5-bromo-4-((5-(dimethylphosphoryl)-2-ethyl-8-fluoroquinolin-6-yl)amino)pyrimidin-2-yl)amino)-5-ethoxy-2-ethylphenyl)piperidin-4-yl)piperazin-1-yl)methyl)azetidin-1-yl)-2-oxobenzo[d]oxazol-3(2H)-yl)piperidine-2,6-dione] was run?
**A.** Its DC50 is 7.47 nM.

**Q.** What about the Dmax [1, 4] of the same molecule?
**A.** The Dmax was 90.2%.

**Q.** And the DC50 [2, 5]?
**A.** Its DC50 is 1.54 nM.

**Q.** And the “Dmax (%) H1975 # 28 DTC” value [2, 6]?
**A.** The value was 77.73%.

**Q.** Which results are given for `CCOc1cc(N2CCC(N3CCN(CCc4cccc5c4oc(=O)n5C4CCC(=O)NC4=O)CC3)CC2)c(CC)cc1Nc1ncc(Br)c(Nc2ccc3nc(CC)ncc3c2P(C)(C)=O)n1` (stereo not shown) [Example 563, 3-(7-(2-(4-(1-(4-((5-bromo-4-((5-(dimethylphosphoryl)-2-ethylquinazolin-6-yl)amino)pyrimidin-2-yl)amino)-5-ethoxy-2-ethylphenyl)piperidin-4-yl)piperazin-1-yl)ethyl)-2-oxobenzo[d]oxazol-3(2H)-yl)piperidine-2,6-dione]?
**A.** DC50 [1, 3]: 7.69 nM; Dmax (%) H1975 # 28 DTC [2, 6]: 81.88%; DC50 [2, 7]: 0.732 nM

**Q.** `CCOc1cc(N2CCC(N3CCN(CCCc4cc(F)cc5c4oc(=O)n5C4CCC(=O)NC4=O)CC3)CC2)c(CC)cc1Nc1ncc(Br)c(Nc2ccc3nc(CC)ncc3c2P(C)(C)=O)n1` (stereo not shown) [Example 564, 3-(7-(3-(4-(1-(4-((5-bromo-4-((5-(dimethylphosphoryl)-2-ethylquinazolin-6-yl)amino)pyrimidin-2-yl)amino)-5-ethoxy-2-ethylphenyl)piperidin-4-yl)piperazin-1-yl)propyl)-5-fluoro-2-oxobenzo[d]oxazol-3(2H)-yl)piperidine-2,6-dione] was tested. Which DC50 [1, 8] did it give?
**A.** Its DC50 is 7.34 nM.

**Q.** What about the Dmax [1, 9] of the same molecule?
**A.** The Dmax was 93.9%.

**Q.** What about the “Dmax (%) H1975 # 28 DTC” value [2, 6] of the same molecule?
**A.** The value was 81.87%.

**Q.** And the DC50 [2, 7]?
**A.** The DC50 was 1.04 nM.

**Q.** Which results are given for `CCOc1cc(N2CCC(N3CCN(CCc4cc5oc(=O)n(C6CCC(=O)NC6=O)c5cc4F)CC3)CC2)c(CC)cc1Nc1ncc(Br)c(Nc2ccc3nc(CC)ncc3c2P(C)(C)=O)n1` (stereo not shown) [Example 565, 3-(6-(2-(4-(1-(4-((5-bromo-4-((5-(dimethylphosphoryl)-2-ethylquinazolin-6-yl)amino)pyrimidin-2-yl)amino)-5-ethoxy-2-ethylphenyl)piperidin-4-yl)piperazin-1-yl)ethyl)-5-fluoro-2-oxobenzo[d]oxazol-3(2H)-yl)piperidine-2,6-dione]?
**A.** DC50 [1, 8]: 3.92 nM; Dmax [1, 9]: 93.2%; Dmax (%) H1975 # 28 DTC [2, 6]: 74.32%; DC50 [2, 7]: 0.626 nM

**Q.** Which results are given for `CCOc1cc(N2CCC(N3CCN(CC4CN(c5cccc6c5oc(=O)n6C5CCC(=O)NC5=O)C4)CC3)CC2)c(CC)cc1Nc1ncc(Br)c(Nc2ccc3nc(CC)ncc3c2P(C)(C)=O)n1` (stereo not shown) [Example 566, 3-(7-(3-((4-(1-(4-((5-bromo-4-((5-(dimethylphosphoryl)-2-ethylquinazolin-6-yl)amino)pyrimidin-2-yl)amino)-5-ethoxy-2-ethylphenyl)piperidin-4-yl)piperazin-1-yl)methyl)azetidin-1-yl)-2-oxobenzo[d]oxazol-3(2H)-yl)piperidine-2,6-dione]?
**A.** DC50 [1, 3]: 5.25 nM; Dmax (%) H1975 # 28 DTC [2, 6]: 84.02%; DC50 [2, 7]: 0.616 nM

**Q.** What does the source list for `CCOc1cc(N2CCC(N3CCN(CCCc4cc(F)c([C@H]5CCC(=O)NC5=O)c(F)c4)CC3)CC2)c(CC)cc1Nc1ncc(Br)c(Nc2cc(F)c3nc(CC)ccc3c2P(C)(C)=O)n1` [Example 567, (R)-3-(4-(3-(4-(1-(4-((5-bromo-4-((5-(dimethylphosphoryl)-2-ethyl-8-fluoroquinolin-6-yl)amino)pyrimidin-2-yl)amino)-5-ethoxy-2-ethylphenyl)piperidin-4-yl)piperazin-1-yl)propyl)-2,6-difluorophenyl)piperidine-2,6-dione]?
**A.** DC50 [1, 3]: 13.2 nM; Dmax [1, 4]: 92%; DC50 [2, 5]: 3.01 nM; Dmax (%) H1975 # 28 DTC [2, 6]: 56.23%

**Q.** How did the DC50 [1, 3] turn out when `CCc1ccc2c(P(C)(C)=O)c(Nc3nc(Nc4cc(C)c(N5CCC(N6CCN(CCc7ccc8c(c7)oc(=O)n8C7CCC(=O)NC7=O)CC6)CC5)cc4OC4CC4)ncc3Br)ccc2n1` (stereo not shown) [Example 568, 3-(6-(2-(4-(1-(4-((5-bromo-4-((5-(dimethylphosphoryl)-2-ethylquinolin-6-yl)amino)pyrimidin-2-yl)amino)-5-cyclopropoxy-2-methylphenyl)piperidin-4-yl)piperazin-1-yl)ethyl)-2-oxobenzo[d]oxazol-3(2H)-yl)piperidine-2,6-dione] was run?
**A.** Its DC50 is 10.4 nM.

**Q.** What about the Dmax [1, 4] of the same molecule?
**A.** The Dmax was 87%.

**Q.** What about the DC50 [2, 5] of the same molecule?
**A.** Its DC50 is 2.38 nM.

**Q.** And the “Dmax (%) H1975 # 28 DTC” value [2, 6]?
**A.** Its value is 91.62%.

**Q.** For `[2H]C1([2H])CC([2H])(c2c(F)cc(CCN3CCN(C4CCN(c5cc(OCC)c(Nc6ncc(Br)c(Nc7ccc8nc(C)ccc8c7P(C)(C)=O)n6)cc5CC)CC4)CC3)cc2F)C(=O)NC1=O` (stereo not shown) [Example 570, 3-(4-(2-(4-(1-(4-((5-bromo-4-((5-(dimethylphosphoryl)-2-methylquinolin-6-yl)amino)pyrimidin-2-yl)amino)-5-ethoxy-2-ethylphenyl)piperidin-4-yl)piperazin-1-yl)ethyl)-2,6-difluorophenyl)piperidine-2,6-dione-3,5,5-d3], which DC50 [1, 3] is on record?
**A.** The DC50 was 20.5 nM.

**Q.** What about the DC50 [2, 5] of the same molecule?
**A.** Its DC50 is 3.03 nM.

**Q.** And the “Dmax (%) H1975 # 28 DTC” value [2, 6]?
**A.** The value was 76.54%.

**Q.** How did the DC50 [1, 3] turn out when `CCc1cc(Nc2ncc(Br)c(Nc3ccc4c(=O)n(C5CC5)ncc4c3P(C)(C)=O)n2)c(OC)cc1N1CCC(N2CCN(CCC3CCN(c4cc(F)c([C@H]5CCC(=O)NC5=O)c(F)c4)CC3)CC2)CC1` [Example 578, (R)-3-(4-(4-(2-(4-(1-(4-((5-bromo-4-((2-cyclopropyl-5-(dimethylphosphoryl)-1-oxo-1,2-dihydrophthalazin-6-yl)amino)pyrimidin-2-yl)amino)-2-ethyl-5-methoxyphenyl)piperidin-4-yl)piperazin-1-yl)ethyl)piperidin-1-yl)-2,6-difluorophenyl)piperidine-2,6-dione] was run?
**A.** Its DC50 is 12.2 nM.

**Q.** What about the Dmax [1, 4] of the same molecule?
**A.** Its Dmax is 96.5%.

**Q.** And the DC50 [2, 5]?
**A.** The DC50 was 3.11 nM.

**Q.** And the “Dmax (%) H1975 # 28 DTC” value [2, 6]?
**A.** The value was 87.5%.

**Q.** Which DC50 [1, 3] does the source give for `CCOc1cc(N2CCC(N3CCN(CC4CCN(c5cccc6c5oc(=O)n6C5CCC(=O)NC5=O)CC4)CC3)CC2)c(CC)cc1Nc1ncc(Br)c(Nc2ccc3nc(CC)ccc3c2P(C)(C)=O)n1` (stereo not shown) [Example 581, 3-(7-(4-((4-(1-(4-((5-bromo-4-((5-(dimethylphosphoryl)-2-ethylquinolin-6-yl)amino)pyrimidin-2-yl)amino)-5-ethoxy-2-ethylphenyl)piperidin-4-yl)piperazin-1-yl)methyl)piperidin-1-yl)-2-oxobenzo[d]oxazol-3(2H)-yl)piperidine-2,6-dione] here?
**A.** The DC50 was 6.9 nM.

**Q.** And the Dmax [1, 4]?
**A.** Its Dmax is 88.5%.

**Q.** What about the DC50 [2, 5] of the same molecule?
**A.** The DC50 was 1.36 nM.

**Q.** And the “Dmax (%) H1975 # 28 DTC” value [2, 6]?
**A.** The value was 72.5%.

**Q.** How did the DC50 [1, 3] turn out when `CCOc1cc(N2CCC(N3CCN(CC4CCN(c5cccc6c5oc(=O)n6C5CCC(=O)NC5=O)CC4)CC3)CC2)c(CC)cc1Nc1ncc(Br)c(Nc2ccc3c(=O)n(CC)ncc3c2P(C)(C)=O)n1` (stereo not shown) [Example 582, 3-(7-(4-((4-(1-(4-((5-bromo-4-((5-(dimethylphosphoryl)-2-ethyl-1-oxo-1,2-dihydrophthalazin-6-yl)amino)pyrimidin-2-yl)amino)-5-ethoxy-2-ethylphenyl)piperidin-4-yl)piperazin-1-yl)methyl)piperidin-1-yl)-2-oxobenzo[d]oxazol-3(2H)-yl)piperidine-2,6-dione] was run?
**A.** The DC50 was 8.54 nM.

**Q.** And the Dmax [1, 4]?
**A.** The Dmax was 93.1%.

**Q.** And the DC50 [2, 5]?
**A.** Its DC50 is 1.06 nM.

**Q.** And the “Dmax (%) H1975 # 28 DTC” value [2, 6]?
**A.** The value was 79.64%.

**Q.** With `CCc1ccc2c(P(C)(C)=O)c(Nc3nc(Nc4cc(CC)c(N5CCC(N6CCC(CCc7cc(F)c(C8CCC(=O)NC8=O)c(F)c7)CC6)CC5)cc4OC)ncc3Br)ccc2n1` (stereo not shown) [Example 583, 3-(4-(2-(1′-(4-((5-bromo-4-((5-(dimethylphosphoryl)-2-ethylquinolin-6-yl)amino)pyrimidin-2-yl)amino)-2-ethyl-5-methoxyphenyl)-[1,4′-bipiperidin]-4-yl)ethyl)-2,6-difluorophenyl)piperidine-2,6-dione] as the molecule, how does the DC50 [1, 3] read?
**A.** The DC50 was 17 nM.

**Q.** And the Dmax [1, 4]?
**A.** The Dmax was 92.9%.

**Q.** What about the DC50 [2, 5] of the same molecule?
**A.** The DC50 was 2.7 nM.

**Q.** What about the “Dmax (%) H1975 # 28 DTC” value [2, 6] of the same molecule?
**A.** The value was 76.91%.

From patent publication US20230265116A1, “DEGRADATION OF (EGFR) BY CONJUGATION OF EGFR INHIBITORS WITH E3 LIGASE LIGAND AND METHODS OF USE” (BEIGENE, LTD., priority 2020, published 2023)
